Measured values from BindingDB's records for doi:10.1002/cbic.200500061 (University of Bristol, 2005).

Target: T1, 1-deoxy-D-xylulose 5-phosphate reductoisomerase (Escherichia coli (strain K12), UniProt P45568)
T1 sequence (P45568 whole entry): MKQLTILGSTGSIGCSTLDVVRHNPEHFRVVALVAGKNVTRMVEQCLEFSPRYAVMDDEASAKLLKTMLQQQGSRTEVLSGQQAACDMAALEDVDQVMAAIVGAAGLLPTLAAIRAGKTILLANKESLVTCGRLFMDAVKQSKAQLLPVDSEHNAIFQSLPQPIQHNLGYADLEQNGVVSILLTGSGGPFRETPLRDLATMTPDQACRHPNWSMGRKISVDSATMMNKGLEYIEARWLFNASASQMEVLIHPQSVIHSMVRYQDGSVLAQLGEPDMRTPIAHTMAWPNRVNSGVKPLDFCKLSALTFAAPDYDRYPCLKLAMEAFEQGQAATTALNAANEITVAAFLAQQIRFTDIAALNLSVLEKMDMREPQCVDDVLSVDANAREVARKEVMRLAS
Assay: Inhibition Assay
Details: pH 8; 37 °C
Description: The assay was monitored spectrophotometrically through the consumption of beta-NADPH. The inhibitor assays contained inhibitor at concentrations of 0.1-15 mM cyclic analogues and 5-35 mM phosphonic acid derivates.

First: CC(=O)NCCCP(=O)(O)O [Phosphate analogue, 9]
Second: NCCCP(=O)(O)O [Phosphate analogue, 8]
The Ki of the first is 1.6-fold higher: 6.5 mM for the first, 4 mM for the second. The second binds more tightly here.

Compared with O=C1OC[C@@H](COP(=O)(O)O)N1O [Phosphate analogue, (s)-14], O=C1N[C@H](COP(=O)(O)O)CO1 [Phosphate analogue, (S)-21] is 5.5-fold higher in Ki: 0.75 mM for the first, 4.1 mM for the second.
